Usually inhibition stands for the percentage by which the read-out fell short of the control.

We go through ten compounds from ChEMBL document CHEMBL2417421, “Biotransformation of ent-pimaradienoic acid by cell cultures of Aspergillus niger” (2013).

This assay deals with Aorta. As to the kind of experiment: Antispasmodic activity in rat aorta assessed as inhibition of phenylephrine-induced aorta contraction at 100 uM after 60 mins relative to control. It is filed as functional. As to conditions: 1 h.

On to `C=C[C@]1(C)C=C2CC[C@H]3[C@@](C)(CCC[C@@]3(C)C(=O)O)[C@@H]2CC1`, for which the inhibition at 100 µM was determined as 73.2%. With `C=C[C@]1(C)C=C2[C@H](O)C[C@H]3[C@@](C)(CCC[C@@]3(C)C(=O)O)[C@@H]2CC1`, the inhibition at 100 µM amounted to 16.8%. As for `C=C[C@]1(C)C=C2C=C[C@H]3[C@](C)([C@@H]2CC1)[C@@H](O)CC[C@@]3(C)C(=O)O`, the inhibition at 100 µM turned out to be 12.5%. For `C=C[C@@]1(C)CC[C@@H]2C(=C[C@H](O)[C@H]3[C@@]2(C)[C@H](O)CC[C@@]3(C)C(=O)O)[C@H]1O`, the inhibition at 100 µM was 0%. As for `C=C[C@]1(C)C=C2[C@@H](O)[C@H](O)[C@H]3[C@@](C)([C@H](O)CC[C@@]3(C)C(=O)O)[C@@H]2[C@@H](O)C1`, the inhibition at 100 µM was determined as 0%. In the case of `C=C[C@@]1(C)CC[C@@H]2C(=CC[C@H]3[C@@]2(C)CCC[C@@]3(C)C(=O)O)C1`, the inhibition at 100 µM is 50.8%. As to `C=C[C@]1(C)C=C2C(=O)C[C@H]3[C@@](C)(CCC[C@@]3(C)C(=O)O)[C@@H]2CC1`, the inhibition at 100 µM was 61.5%. Under `C=C[C@]1(C)C=C2[C@@H](CC1)[C@]1(C)CCC[C@@](C)(C(=O)OC)[C@H]1C[C@@H]2O` stands 82.5%.

On to `C=C[C@]1(C)C=C2CC[C@@H]3[C@](C)(CO)CCC[C@@]3(C)[C@@H]2CC1`, for which the inhibition at 100 µM worked out at 58.8%. Turning to `C=C[C@]1(C)C=C2CC[C@H]3[C@@](C)(CCC[C@@]3(C)C(=O)OC)[C@@H]2CC1`, the inhibition at 100 µM was determined as 10.5%.
